These results are taken from publication PMC6272887, “Discovery of Potent c-MET Inhibitors with New Scaffold Having Different Quinazoline, Pyridine and Tetrahydro-Pyridothienopyrimidine Headgroups” (Molecules, 2016).

As a reminder, the IC50 is the concentration that inhibits the measured activity by half. By melting point is commonly meant the temperature, or range, at which the solid turns liquid.

Series [1] has as its target T1, c-Kit (Homo sapiens, UniProt P10721).
T1 construct: purchased Cell Signaling Technology, Inc
Description: In vitro kinase assay (HTScan c-Kit Kinase Assay Kit). The settings on record: for IC50: ATP 10 µM, read-out: Enzyme, IC50, µM c-Kit; for selectivity against c-Kit: relative to c-MET. It counts as biochemical. On the procedure:
(§1) In vitro kinase inhibitory ability was determined using HTScan MET Kinase Assay Kit, HTScan VEGF Receptor 2 Kinase Assay Kit, HTScan c-Kit Kinase Assay Kit, HTScan PDGF Receptor β Kinase Assay Kit and HTScan EGFR Kinase Assay Kit(purchased from Cell Signaling Technology, Inc. Danvers, MA, USA) by colorimetric ELISA assay according to the manufacturer’s instructions. Briefly, reaction cocktail containing recombinant human MET kinase or other kinases were incubated with various concentrations of tested compounds or DMSO (0.1%) for 5 min at room temperature, and then ATP/substrate peptide cocktail was added to the pre-incubated reaction cocktail. After incubation at room temperature for 30 min, the reaction was stopped and transferred to a 96-wellstreptavidin-coated plate, and incubated for 1 h at room temperature. Primary antibody (phosphorylated tyrosine monoclonal antibody (pTyr-100), 1:1000 in PBS/T with 1% bovine serum albumin (BSA)) was added into per well until the wells were washed thrice with PBS/T. After incubated at room temperature for 1 h, phosphorylation of the substrate was monitored with HRP-labeled anti-mouse IgG antibody (1:500 in PBS/T with 1% BSA), followed by a chromogenic reaction. Finally, the kinase assay was detected at 450 nm with microplate reader. The reaction processed with only DMSO (0.1%) served as a vehicle control. […] The kinase assay was performed thrice independently.

Series [2] has as its target T2, EGFR (Homo sapiens, UniProt P00533).
T2 construct: purchased Cell Signaling Technology, Inc
The series is described as follows: In vitro kinase assay (HTScan EGFR Kinase Assay Kit). It counts as biochemical. The settings on record: for IC50: ATP 10 µM, read-out: Enzyme, IC50, µM EGFR; for selectivity against EGFR: relative to c-MET. On the procedure: as §1

Series [3] concerns the target T3, VEGFR-2 (Homo sapiens, UniProt P35968).
T3 construct: purchased Cell Signaling Technology, Inc
The series is described as follows: In vitro kinase assay (HTScan VEGF Receptor 2 Kinase Assay Kit). It counts as biochemical. The settings on record: ATP 10 µM; read-out: Enzyme, IC50, µM VEGFR-2. On the procedure:
In vitro kinase inhibitory ability was determined using HTScan MET Kinase Assay Kit, HTScan VEGF Receptor 2 Kinase Assay Kit, HTScan c-Kit Kinase Assay Kit, HTScan PDGF Receptor β Kinase Assay Kit and HTScan EGFR Kinase Assay Kit(purchased from Cell Signaling Technology, Inc. Danvers, MA, USA) by colorimetric ELISA assay according to the manufacturer’s instructions. Briefly, reaction cocktail containing recombinant human MET kinase or other kinases were incubated with various concentrations of tested compounds or DMSO (0.1%) for 5 min at room temperature, and then ATP/substrate peptide cocktail was added to the pre-incubated reaction cocktail. After incubation at room temperature for 30 min, the reaction was stopped and transferred to a 96-wellstreptavidin-coated plate, and incubated for 1 h at room temperature. Primary antibody (phosphorylated tyrosine monoclonal antibody (pTyr-100), 1:1000 in PBS/T with 1% bovine serum albumin (BSA)) was added into per well until the wells were washed thrice with PBS/T. After incubated at room temperature for 1 h, phosphorylation of the substrate was monitored with HRP-labeled anti-mouse IgG antibody (1:500 in PBS/T with 1% BSA), followed by a chromogenic reaction. Finally, the kinase assay was detected at 450 nm with microplate reader. The reaction processed with only DMSO (0.1%) served as a vehicle control. […]

For series [4], the system named is MCF-7 (human breast cancer). The series is described as follows: Cell proliferative assay (MTT), MCF-7. It counts as cell-based. The settings on record: Homo sapiens, MCF7, MTT assay, MCF-7 cells; read-out: Proliferative Inhibition (IC50, µM) MCF-7. How it is done: (§2) The anti-proliferative activities of synthesized compounds against HeLa, Hep-G2 and MCF-7 cells were evaluated by MTT assay. HeLa cells were grown to log phase in RPMI 1640 medium supplemented with 10% fetal bovine serum. Hep-G2 and MCF-7 cells were grown to log phase in DMEM medium supplemented with 10% fetal bovine serum. After diluting to […] with the complete medium, 100 µL of the obtained cell suspension was added to each well of 96-well culture plates. The subsequent incubation was permitted at 37 °C, 5% CO2 atmosphere for 48 h before the anti-proliferative assessments. Tested samples at pre-set concentrations were added to 6 wells. Before the anti-proliferative assessments, 20 µL of PBS containing 2.5 mg∙mL^−1 of MTT was added to each well. Four h later, 100 µL extraction solution (DMSO) was added to each well and the optical density was measured at a wavelength of 570 nm on an ELISA microplate reader.
(Tetrazolium dyes change colour on reduction, which living cells bring about.)

The target in series [5] is T4, c-MET (Homo sapiens, UniProt P08581).
T4 construct: purchased Cell Signaling Technology, Inc
The series is described as follows: In vitro kinase assay (HTScan MET Kinase Assay Kit, colorimetric ELISA). It counts as biochemical. The settings on record: ATP 10 µM; three independent determinations; read-out: Enzymatic Inhibition (IC50, µM) c-MET. How it is done:
as §1
(In general: In an ELISA, binding on a coated surface is turned into a signal by an enzyme label.)

Series [6] relates to Hep-G2 (human liver cancer). Description: Cell proliferative assay (MTT), Hep-G2. The settings on record: Homo sapiens, HepG2, Hep-G2 cells, read-out: Proliferative Inhibition (IC50, µM) Hep-G2. It counts as cell-based. On the procedure: as §2
Series [7] has as its target T5, PDGFR-b (Homo sapiens, UniProt P09619).
T5 construct: purchased Cell Signaling Technology, Inc
The series is described as follows: In vitro kinase assay (HTScan PDGF Receptor β Kinase Assay Kit). The settings on record: for IC50: ATP 10 µM, read-out: Enzyme, IC50, µM PDGFR-b; for selectivity against PDGFR-b: relative to c-MET. It counts as biochemical. On the procedure: as §1

Series [8] has as its system HeLa (human cervical carcinoma). The series is described as follows: Cell proliferative assay (MTT), HeLa. It is filed as cell-based. The settings on record: Homo sapiens, HeLa, HeLa cells, read-out: Proliferative Inhibition (IC50, µM) HeLa. How it is done:
as §2

The test system of series [9] is c-MET. More on the design: method as in PMID 19896842, PMID 24485123, PMID 23041435. The settings on record: cell-free assays; cited from earlier work.

SMILES strings stand for the structures.

T2 sequence (P00533 25-1210): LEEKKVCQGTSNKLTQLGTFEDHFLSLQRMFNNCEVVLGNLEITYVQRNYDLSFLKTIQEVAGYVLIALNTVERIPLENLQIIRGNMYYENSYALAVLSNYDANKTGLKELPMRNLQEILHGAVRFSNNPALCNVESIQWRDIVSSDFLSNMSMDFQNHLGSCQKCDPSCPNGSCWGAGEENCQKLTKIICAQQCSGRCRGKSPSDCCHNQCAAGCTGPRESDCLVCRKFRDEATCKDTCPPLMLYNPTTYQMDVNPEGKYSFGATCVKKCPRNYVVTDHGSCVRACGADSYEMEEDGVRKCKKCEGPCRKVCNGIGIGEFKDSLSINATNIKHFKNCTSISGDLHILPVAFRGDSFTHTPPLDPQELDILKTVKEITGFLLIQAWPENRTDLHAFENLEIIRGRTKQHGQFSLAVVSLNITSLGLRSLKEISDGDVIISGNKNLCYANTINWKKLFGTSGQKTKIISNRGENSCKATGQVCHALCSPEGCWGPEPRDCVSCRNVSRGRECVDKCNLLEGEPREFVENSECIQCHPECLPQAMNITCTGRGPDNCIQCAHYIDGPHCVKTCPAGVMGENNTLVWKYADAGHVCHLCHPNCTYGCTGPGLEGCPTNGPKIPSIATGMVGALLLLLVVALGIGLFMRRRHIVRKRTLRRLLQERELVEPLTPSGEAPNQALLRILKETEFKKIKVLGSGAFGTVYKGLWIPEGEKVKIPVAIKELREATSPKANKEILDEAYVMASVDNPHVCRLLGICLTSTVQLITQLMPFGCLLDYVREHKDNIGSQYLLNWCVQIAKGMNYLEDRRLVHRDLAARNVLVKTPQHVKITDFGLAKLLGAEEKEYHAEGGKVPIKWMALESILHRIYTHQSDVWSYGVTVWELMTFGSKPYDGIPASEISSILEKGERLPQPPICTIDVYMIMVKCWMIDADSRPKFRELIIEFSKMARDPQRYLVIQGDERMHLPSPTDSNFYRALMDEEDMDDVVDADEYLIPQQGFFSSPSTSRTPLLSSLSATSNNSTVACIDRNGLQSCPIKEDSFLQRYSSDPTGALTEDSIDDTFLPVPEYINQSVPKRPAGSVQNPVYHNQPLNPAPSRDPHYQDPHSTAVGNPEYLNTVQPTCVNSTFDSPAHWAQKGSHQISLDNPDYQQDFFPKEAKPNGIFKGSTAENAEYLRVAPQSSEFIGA
T4 sequence (P08581 25-1390): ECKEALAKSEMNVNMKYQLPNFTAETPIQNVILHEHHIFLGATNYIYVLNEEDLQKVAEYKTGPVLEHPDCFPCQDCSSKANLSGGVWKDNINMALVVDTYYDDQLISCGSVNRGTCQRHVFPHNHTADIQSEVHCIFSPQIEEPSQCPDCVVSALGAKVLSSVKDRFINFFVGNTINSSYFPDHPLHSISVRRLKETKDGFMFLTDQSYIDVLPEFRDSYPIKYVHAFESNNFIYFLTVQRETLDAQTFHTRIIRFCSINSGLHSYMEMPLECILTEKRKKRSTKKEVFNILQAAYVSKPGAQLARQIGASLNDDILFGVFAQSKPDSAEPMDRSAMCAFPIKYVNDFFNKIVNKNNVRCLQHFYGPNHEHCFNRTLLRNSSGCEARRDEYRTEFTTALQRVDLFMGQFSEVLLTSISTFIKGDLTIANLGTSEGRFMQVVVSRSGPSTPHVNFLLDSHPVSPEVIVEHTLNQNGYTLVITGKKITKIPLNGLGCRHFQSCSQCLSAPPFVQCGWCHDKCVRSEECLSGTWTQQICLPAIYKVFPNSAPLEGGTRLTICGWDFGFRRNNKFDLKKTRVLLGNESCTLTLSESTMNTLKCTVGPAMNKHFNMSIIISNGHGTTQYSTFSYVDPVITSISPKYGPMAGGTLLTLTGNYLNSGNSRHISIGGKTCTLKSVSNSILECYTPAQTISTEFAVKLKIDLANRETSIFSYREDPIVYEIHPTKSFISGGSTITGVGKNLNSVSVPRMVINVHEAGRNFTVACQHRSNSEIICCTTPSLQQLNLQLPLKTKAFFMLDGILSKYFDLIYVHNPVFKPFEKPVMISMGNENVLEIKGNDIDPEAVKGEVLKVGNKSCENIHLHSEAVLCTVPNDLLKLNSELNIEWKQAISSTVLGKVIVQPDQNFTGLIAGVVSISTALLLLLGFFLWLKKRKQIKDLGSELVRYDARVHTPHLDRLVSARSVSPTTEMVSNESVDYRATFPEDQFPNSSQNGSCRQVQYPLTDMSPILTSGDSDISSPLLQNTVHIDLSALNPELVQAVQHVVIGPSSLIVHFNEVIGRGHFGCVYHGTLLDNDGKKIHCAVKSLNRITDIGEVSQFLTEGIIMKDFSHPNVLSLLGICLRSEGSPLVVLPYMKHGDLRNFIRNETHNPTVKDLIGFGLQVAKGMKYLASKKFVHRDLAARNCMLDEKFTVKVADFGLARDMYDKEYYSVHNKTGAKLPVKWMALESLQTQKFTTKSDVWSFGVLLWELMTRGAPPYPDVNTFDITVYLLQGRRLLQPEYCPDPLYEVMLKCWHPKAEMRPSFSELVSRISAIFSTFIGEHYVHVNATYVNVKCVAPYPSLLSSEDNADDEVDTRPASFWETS
T1 sequence (P10721 26-976): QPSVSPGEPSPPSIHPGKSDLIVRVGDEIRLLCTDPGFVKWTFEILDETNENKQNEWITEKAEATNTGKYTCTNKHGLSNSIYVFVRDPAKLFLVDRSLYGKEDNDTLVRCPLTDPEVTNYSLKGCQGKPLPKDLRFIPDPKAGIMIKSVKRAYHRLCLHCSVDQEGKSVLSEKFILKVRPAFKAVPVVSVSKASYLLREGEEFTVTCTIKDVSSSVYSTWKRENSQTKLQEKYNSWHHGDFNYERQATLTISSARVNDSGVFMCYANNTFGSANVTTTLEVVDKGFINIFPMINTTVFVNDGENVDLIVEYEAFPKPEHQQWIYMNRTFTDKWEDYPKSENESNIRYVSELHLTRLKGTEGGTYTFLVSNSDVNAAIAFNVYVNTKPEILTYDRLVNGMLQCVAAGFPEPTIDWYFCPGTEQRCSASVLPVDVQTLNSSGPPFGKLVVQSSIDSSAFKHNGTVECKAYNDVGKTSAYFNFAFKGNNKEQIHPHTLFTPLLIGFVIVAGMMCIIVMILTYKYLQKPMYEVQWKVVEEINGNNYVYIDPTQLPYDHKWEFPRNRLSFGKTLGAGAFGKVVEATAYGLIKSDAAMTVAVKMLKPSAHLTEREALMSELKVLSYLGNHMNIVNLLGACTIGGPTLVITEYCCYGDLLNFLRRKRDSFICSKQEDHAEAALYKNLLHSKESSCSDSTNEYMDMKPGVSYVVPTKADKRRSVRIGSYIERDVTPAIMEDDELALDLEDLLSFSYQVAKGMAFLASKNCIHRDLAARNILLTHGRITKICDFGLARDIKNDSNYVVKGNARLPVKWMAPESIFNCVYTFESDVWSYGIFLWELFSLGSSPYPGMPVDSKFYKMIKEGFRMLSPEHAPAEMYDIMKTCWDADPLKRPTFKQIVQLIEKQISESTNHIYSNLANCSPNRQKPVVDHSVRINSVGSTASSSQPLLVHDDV
T5 sequence (P09619 33-1106): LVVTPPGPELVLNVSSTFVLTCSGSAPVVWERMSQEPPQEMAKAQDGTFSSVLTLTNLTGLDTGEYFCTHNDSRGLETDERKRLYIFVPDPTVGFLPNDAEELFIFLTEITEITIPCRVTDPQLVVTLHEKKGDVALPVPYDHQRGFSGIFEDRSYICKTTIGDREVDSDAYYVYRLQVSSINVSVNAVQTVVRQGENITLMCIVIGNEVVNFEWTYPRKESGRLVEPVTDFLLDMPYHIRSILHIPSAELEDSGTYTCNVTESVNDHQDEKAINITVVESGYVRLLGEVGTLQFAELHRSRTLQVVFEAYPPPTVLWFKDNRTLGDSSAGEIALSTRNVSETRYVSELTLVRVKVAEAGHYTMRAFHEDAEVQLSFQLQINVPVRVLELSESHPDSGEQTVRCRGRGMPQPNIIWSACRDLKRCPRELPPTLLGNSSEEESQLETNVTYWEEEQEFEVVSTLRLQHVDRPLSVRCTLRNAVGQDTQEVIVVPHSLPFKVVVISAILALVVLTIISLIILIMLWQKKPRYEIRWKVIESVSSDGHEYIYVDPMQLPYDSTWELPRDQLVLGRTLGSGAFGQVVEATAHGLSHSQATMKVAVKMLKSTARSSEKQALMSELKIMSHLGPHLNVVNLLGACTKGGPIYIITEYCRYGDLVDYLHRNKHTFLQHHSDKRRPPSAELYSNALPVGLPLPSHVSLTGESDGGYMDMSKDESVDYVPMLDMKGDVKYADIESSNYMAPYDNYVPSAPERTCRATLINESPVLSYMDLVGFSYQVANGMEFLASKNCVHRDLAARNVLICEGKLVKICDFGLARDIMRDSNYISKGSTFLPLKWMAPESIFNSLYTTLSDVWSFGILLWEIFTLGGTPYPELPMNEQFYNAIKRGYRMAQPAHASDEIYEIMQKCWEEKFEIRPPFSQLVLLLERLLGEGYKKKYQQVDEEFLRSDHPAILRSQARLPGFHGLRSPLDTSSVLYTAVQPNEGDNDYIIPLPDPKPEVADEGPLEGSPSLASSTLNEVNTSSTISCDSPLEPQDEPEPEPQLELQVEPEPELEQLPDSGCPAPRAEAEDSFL

Compound `COc1cc2ncnc(Oc3ccc(NC(=O)C4(C(=O)Nc5ccc(F)cc5)CC4)cc3F)c2cc1OC` [Compound 13b] registered a melting point of 180 to 182 °C. In [1], the IC50 was determined as 4.3 ± 0.11 µM and the “selectivity against c-Kit” value is 215 fold. For the same compound, in [2], the IC50 is more than 10 µM and the “selectivity against EGFR” value is given as more than 500 fold. In addition, in series [3], the 50% inhibitory concentration (IC50) came to 0.1 ± 0.02 µM. Moreover, the IC50 in series [4] amounted to 1.2 ± 0.21 µM. For the same compound, the IC50 in series [5] worked out at 0.02 µM. The IC50 in series [6] is 12.8 ± 0.28 µM. For the same compound, in [7], the IC50 is more than 10 µM and the “selectivity against PDGFR-b” value is reported as more than 500 fold. Further, the IC50 in [8] was determined as 4.7 ± 0.11 µM.

Consider `CC(C)(C)OC(=O)N1CCc2c(sc3ncnc(Oc4ccc(NC(=O)C5(C(=O)Nc6ccc(F)cc6)CC5)cc4F)c23)C1` [Compound 13h, tert-butyl-4-{2-fluoro-4-(1-((4-fluorophenyl)carbamoyl)cyclopropanecarboxamido)phenoxy}-5,6-dihydropyrido(4’,3’:4,5)thieno(2,3-d)pyrimidine-7(8H)-carboxylate], for which the melting point was 171 to 173 °C. Also, in series [1], the IC50 came out at 5.2 ± 0.09 µM and the “selectivity against c-Kit” value turned out to be 104 fold. In series [2], the IC50 was more than 10 µM and the “selectivity against EGFR” value is more than 200 fold. Also, in series [3], the half-maximal inhibitory concentration (IC50) is 0.25 ± 0.02 µM. Also, the half-inhibitory concentration (IC50) in series [4] is 2.8 ± 0.23 µM. Also, the IC50 in series [5] came to 0.05 ± 0.01 µM. For the same compound, in [6], the concentration for half-maximal inhibition (IC50) was 1.7 ± 0.04 µM. Also, in [7], the concentration for half-maximal inhibition (IC50) stood at 7.2 ± 0.1 µM and the “selectivity against PDGFR-b” value was 144 fold. The IC50 in [8] was determined as 4.6 ± 0.03 µM.

In turn, `CC(C)(C)OC(=O)N1CCc2c(sc3ncnc(Oc4ccc(NC(=O)C5(C(=O)Nc6ccc(F)cc6)CCC5)cc4F)c23)C1` [Compound 13i, tert-butyl-4-{2-fluoro-4-(1-((4-fluorophenyl)carbamoyl)cyclobutanecarboxamido)phenoxy}-5,6-dihydropyrido(4’,3’:4,5)thieno(2,3-d)pyrimidine-7(8H)-carboxylate] returned a melting point of 101 to 103 °C. In addition, the half-inhibitory concentration (IC50) in series [4] turned out to be 21.7 ± 0.16 µM. In addition, the concentration for half-maximal inhibition (IC50) in [5] stood at 0.25 ± 0.08 µM. In [6], the IC50 was 43.2 ± 0.26 µM. Further, the IC50 in series [8] came out at 4.2 ± 0.31 µM.

On to `COc1cc2nccc(Oc3ccc(NC(=O)C4(C(=O)Nc5ccc(F)cc5)CC4)cc3)c2cc1OC` [XL184, Cabozantinib, reference compound], for which the IC50 in series [9] is 0.0013 µM; in series [6] it was 49.1 ± 0.25 µM.
